Reference: patent US20100092549A1, “Dosage Form Containing Two or More Active Pharmaceutical Ingredients in Different Physical Forms” (priority 2007, published 2010)
Where a name gives a salt, the structure may show the parent alone.

Assay: Related substance testing by HPLC on interaction samples after storage
Type: physicochemical
[1] = 40/75: incubator 40° C./75% RH for 6 days

Description: The APIs alone and two initial, conventional finished dosage forms were analysed under three different storage conditions, ie. cold room storage, kept in an oven at 60° C. for 7 days and stored in an incubator held at 40° C./75% RH for 6 days. The mixtures of one or both APIs with an excipient were analysed under two different storage conditions, ie. kept in an oven at 60° C. for 7 days and stored in an incubator held at 40° C./75% RH for 6 days.
The list of samples are as follows: • Fluoxetine HCl alone • Olanzapine alone • Fluoxetine HCl/Olanzapine Capsules • Fluoxetine HCl+Microcrystalline cellulose • Fluoxetine HCl+Pregelatinised maize starch • Fluoxetine HCl+Maize starch • Fluoxetine HCl+Magnesium stearate • Fluoxetine HCl+Olanzapine • Fluoxetine HCl+Olanzapine+Microcrystalline cellulose • Fluoxetine HCl+Olanzapine+Pregelatinised maize starch • Fluoxetine HCl+Olanzapine+Maize starch • Fluoxetine HCl+Olanzapine+Magnesium stearate • Olanzapine Tablets • Olanzapine+Lactose monohydrate • Olanzapine+Microcrystalline cellulose • Olanzapine+Maize starch • Olanzapine+Pregelatinised maize starch • Olanzapine+Crospovidone • Olanzapine+Magnesium stearate • Olanzapine+Opadry® II coating ingredients
The samples were analysed after the allotted period of time and the level of known and unknown related substances were determined by HPLC.

SMILES: CNCCC(Oc1ccc(C(F)(F)F)cc1)c1ccccc1 (stereo not drawn) [Fluox API, Fluoxetine HCl]
- Impurity 1 (unknown related substance) [1]: 0.041
- Impurity 2 (unknown related substance) [1]: 0.069
- Impurity 1 (unknown related substance) (CR: cold room storage): 0.034
- Impurity 2 (unknown related substance) (CR: cold room storage): 0.068
- Impurity 1 (unknown related substance) (Oven: 60° C. for 7 days): 0.039
- Impurity 2 (unknown related substance) (Oven: 60° C. for 7 days): 0.067
